Values quoted from earlier work, collected in patent US20090325807A1, “Method of Improving Plant Growth” (Bayer Cropscience AG, priority 2004, published 2009).

Tested on: cucumis melo L.
Conditions: in the absence of insects

## O=[N+]([O-])NC1=NCCN1Cc1ccc(Cl)nc1 [imidacloprid, Imidacloprid]
  growth effect: no growth effect
